The source of these data is publication PMC5540818 (Chemical biology & drug design, 2017).

One data set addresses Sa-SrtA (Staphylococcus aureus, UniProt Q2FV99). To be noted: read-out: Sa-SrtA IC50; values taken from reference; cited from earlier work.
Data set [1] in a line: Solubility in aqueous buffer. It counts as physicochemical.
In another data set the target is SrtA (Staphylococcus aureus, UniProt Q2FV99). To be noted: read-out: SrtA IC50; cited from earlier work.
For the next data set, the system named is S. aureus infections. The note with it: dosed at 20 (DMMA) and 40 (triazolothiadiazole) mg of compound per kg of animal; cited from earlier work.

Structures can show the parent of a compound that is named as a salt.

The IC50 is the concentration needed to halve the response being measured.

SrtA, sequence (Q2FV99 60-206): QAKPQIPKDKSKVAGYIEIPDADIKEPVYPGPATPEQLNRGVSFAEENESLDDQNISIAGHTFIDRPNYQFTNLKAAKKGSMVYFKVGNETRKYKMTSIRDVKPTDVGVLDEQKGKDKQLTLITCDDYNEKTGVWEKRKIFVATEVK
Sa-SrtA, sequence (Q2FV99 60-206): as above

`CCOc1c(S)cnn(-c2ccccc2)c1=O` [2-10]: the IC50 on Sa-SrtA is 13 ± 1 µM. Moreover, the “solubility in aqueous solvent” value in data set [1] (aqueous solvent) is listed as “poorly soluble”.
Consider `CCOc1c(S)cnn(-c2ccccc2)c1=O` [2-salt, 5-ethoxy-6-oxo-1-phenyl-1,6-dihydropyridazine-4-thiolate], for which the solubility entry in data set [1] (aqueous buffer) is on record as “up to 75 mM”.
`COc1ccc(/C(C#N)=C/c2cc(OC)ccc2OC)cc1` [DMMA, (Z)-3-(2,5-dimethoxyphenyl)-2-(4-methoxyphenyl) acrylonitrile]: at SrtA, the IC50 was 9.2 µM. Besides, the “efficacy in treating potentially lethal S. aureus infections in animal models” value with S. aureus infections is given as “efficacious”.
Take `O=S(=O)([O-])c1ccccc1-c1nn2c(-c3ccncc3)nnc2s1.[Na+]` [triazolothiadiazol, 3-(4-pyridinyl)-6-(2-sodiumsulfonatephenyl)[1,2,4]triazolo[3,4-b][1,3,4]thiadiazole]: the IC50 on SrtA is 9.3 µM. The “efficacy in treating potentially lethal S. aureus infections in animal models” value in the data set on S. aureus infections is given as “efficacious”.
